Measured values: ChEMBL document CHEMBL1201862, “PubChem BioAssay data set” (2004)
Activity calls are given as the source filed them.

Key:
[1] = target: T1, Zinc finger protein mex-5 (Caenorhabditis elegans, UniProt Q9XUB2); assay: MEX-5/TCR-2 RNA interaction inhibitors, dose response, biochemical, C. elegans, fluorescence polarization (AID 1960)
T1 sequence (Q9XUB2 whole entry): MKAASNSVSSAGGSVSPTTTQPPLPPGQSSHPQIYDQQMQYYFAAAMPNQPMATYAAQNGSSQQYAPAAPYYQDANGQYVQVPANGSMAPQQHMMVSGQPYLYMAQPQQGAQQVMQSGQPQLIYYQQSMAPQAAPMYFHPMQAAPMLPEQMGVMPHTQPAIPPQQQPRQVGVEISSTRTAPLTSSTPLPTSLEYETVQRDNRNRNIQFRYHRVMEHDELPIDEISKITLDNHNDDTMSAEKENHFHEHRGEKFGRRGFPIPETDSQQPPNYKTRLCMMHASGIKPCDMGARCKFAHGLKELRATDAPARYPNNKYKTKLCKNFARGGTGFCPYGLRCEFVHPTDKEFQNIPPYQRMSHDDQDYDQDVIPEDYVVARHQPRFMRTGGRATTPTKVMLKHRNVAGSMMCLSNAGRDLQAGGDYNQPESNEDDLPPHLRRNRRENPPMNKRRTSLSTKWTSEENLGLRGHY

[2] = target: T2, RNA-binding protein pos-1 (Caenorhabditis elegans, UniProt G5EF15); assay: inhibitors of POS-1/mex-3 RNA binding, dose response, biochemical, fluorescence polarization (AID 1964);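 also: purified POS-1 fused to maltose binding protein made in E. coli; potency of compounds blocking POS-1 binding to fluorescent RNA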
T2 sequence (G5EF15 whole entry): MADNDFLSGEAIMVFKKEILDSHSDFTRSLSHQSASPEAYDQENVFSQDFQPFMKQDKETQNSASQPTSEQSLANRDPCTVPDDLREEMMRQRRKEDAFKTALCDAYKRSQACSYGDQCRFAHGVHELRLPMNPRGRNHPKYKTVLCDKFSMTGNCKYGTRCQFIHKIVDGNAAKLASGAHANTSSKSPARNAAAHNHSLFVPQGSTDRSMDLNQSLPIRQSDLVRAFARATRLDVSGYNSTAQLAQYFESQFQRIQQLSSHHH

Cytochrome P450 2C9 = Cytochrome P450 2C9 (Homo sapiens, UniProt P11712)
Cytochrome P450 1A2 = target: T3, Cytochrome P450 1A2 (Homo sapiens, UniProt P05177);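 also: PubChem cytochrome P450 panel assay, CYP1A2 panel member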
T3 sequence (P05177 whole entry): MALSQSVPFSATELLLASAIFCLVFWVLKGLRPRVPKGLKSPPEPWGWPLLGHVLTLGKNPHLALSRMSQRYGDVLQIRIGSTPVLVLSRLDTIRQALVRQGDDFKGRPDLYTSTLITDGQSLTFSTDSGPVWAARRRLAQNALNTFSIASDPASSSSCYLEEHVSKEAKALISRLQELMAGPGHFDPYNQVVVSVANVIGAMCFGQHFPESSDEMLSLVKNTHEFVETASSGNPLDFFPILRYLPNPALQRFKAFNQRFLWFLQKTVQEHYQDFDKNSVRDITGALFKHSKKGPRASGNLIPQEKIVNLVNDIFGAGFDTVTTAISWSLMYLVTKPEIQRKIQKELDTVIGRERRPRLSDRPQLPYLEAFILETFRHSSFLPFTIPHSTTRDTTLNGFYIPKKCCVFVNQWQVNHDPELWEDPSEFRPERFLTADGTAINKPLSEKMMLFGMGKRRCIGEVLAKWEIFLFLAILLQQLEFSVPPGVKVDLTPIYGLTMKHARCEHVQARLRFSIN

[3] = target: T4, Corticotropin-releasing factor receptor 2/Corticotropin-releasing factor-binding protein (Homo sapiens, UniProt P24387+Q13324); assay: activators of CRF receptor 2 with binding protein – uHTS hits, confirmation (AID 602473); type: functional; settings: read-out: EC50_Mean
T4 sequence (Q13324 whole entry): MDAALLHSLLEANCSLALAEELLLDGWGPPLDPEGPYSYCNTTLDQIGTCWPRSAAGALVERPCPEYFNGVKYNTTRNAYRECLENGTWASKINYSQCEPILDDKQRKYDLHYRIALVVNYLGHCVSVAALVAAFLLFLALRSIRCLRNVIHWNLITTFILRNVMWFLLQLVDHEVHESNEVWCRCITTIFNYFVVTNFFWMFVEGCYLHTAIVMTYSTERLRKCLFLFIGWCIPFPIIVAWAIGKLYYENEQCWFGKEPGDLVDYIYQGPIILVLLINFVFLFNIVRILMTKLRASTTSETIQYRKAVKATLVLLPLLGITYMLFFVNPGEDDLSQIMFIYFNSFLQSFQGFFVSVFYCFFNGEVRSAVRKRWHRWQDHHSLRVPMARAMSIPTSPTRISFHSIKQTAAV
T4 sequence (P24387 whole entry): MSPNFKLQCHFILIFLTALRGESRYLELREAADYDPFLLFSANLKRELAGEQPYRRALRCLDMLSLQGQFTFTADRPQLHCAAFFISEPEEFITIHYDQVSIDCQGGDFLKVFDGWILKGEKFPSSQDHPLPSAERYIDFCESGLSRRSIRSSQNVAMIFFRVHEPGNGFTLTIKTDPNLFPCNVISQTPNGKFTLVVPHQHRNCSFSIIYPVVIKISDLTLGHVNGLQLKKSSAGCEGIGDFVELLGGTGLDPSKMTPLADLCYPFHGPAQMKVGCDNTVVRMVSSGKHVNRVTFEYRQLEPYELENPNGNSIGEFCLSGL

[4] = target: FAD-linked sulfhydryl oxidase ALR (Homo sapiens, UniProt P55789); assay: inhibitors of human ALR sulfhydryl oxidase, dose response, biochemical, H2O2 detection, luminescence, cherry-pick (AID 493248)
Cytochrome P450 2C19 = Cytochrome P450 2C19 (Homo sapiens, UniProt P33261); assay: Cytochrome panel assay with activity outcomes. Panel member name: p450-cyp2c19 Compounds with AC50 equal or less than 10 uM are considered active; type: functional; settings: read-out: AC50
Cytochrome P450 2D6 = Cytochrome P450 2D6 (Homo sapiens, UniProt P10635);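 also: CYP2D6 member of a cytochrome P450 panel assay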
[5] = microbe, parasite or virus in culture; type: functional; settings: Mycobacterium tuberculosis
[6] = Luminescence Cell-Based Dose Retest to Confirm Inhibitors of Cancer Stem Cells. [Related pubchem assays (depositor defined):AID2717, AID2721]; type: functional; settings: Homo sapiens

Cytochrome P450 2C9, sequence (P11712 whole entry): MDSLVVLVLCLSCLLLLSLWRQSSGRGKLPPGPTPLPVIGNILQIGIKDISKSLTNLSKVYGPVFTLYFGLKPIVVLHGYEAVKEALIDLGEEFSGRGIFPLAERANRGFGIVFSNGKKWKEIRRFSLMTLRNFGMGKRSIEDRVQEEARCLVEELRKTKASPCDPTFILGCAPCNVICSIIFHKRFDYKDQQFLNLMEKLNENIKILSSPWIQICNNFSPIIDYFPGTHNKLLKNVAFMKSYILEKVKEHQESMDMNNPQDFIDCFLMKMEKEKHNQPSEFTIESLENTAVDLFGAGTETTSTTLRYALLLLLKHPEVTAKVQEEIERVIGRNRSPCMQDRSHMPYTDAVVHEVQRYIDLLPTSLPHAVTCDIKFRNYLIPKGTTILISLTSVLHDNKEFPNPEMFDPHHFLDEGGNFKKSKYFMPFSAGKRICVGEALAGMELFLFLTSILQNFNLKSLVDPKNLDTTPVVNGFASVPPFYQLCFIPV
FAD-linked sulfhydryl oxidase ALR, sequence (P55789 whole entry): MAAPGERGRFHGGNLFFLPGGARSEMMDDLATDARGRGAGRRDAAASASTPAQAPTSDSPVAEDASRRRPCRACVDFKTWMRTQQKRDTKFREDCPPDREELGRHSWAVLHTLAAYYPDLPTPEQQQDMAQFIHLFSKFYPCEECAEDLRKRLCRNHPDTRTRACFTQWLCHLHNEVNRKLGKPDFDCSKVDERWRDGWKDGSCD
Cytochrome P450 2C19, sequence (P33261 whole entry): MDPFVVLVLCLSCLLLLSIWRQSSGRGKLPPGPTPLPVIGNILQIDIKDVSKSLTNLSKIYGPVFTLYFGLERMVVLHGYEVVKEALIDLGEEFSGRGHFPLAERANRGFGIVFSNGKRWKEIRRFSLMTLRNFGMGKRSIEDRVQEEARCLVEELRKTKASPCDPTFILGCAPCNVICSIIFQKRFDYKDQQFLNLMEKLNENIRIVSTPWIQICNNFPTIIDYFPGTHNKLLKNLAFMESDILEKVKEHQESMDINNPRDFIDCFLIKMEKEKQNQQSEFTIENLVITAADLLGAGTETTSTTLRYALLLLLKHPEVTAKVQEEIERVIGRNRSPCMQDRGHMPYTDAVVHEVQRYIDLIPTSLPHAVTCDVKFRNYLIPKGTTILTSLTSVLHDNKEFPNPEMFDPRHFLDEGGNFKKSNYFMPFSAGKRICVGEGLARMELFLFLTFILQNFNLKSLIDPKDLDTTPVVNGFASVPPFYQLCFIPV
Cytochrome P450 2D6, sequence (P10635 whole entry): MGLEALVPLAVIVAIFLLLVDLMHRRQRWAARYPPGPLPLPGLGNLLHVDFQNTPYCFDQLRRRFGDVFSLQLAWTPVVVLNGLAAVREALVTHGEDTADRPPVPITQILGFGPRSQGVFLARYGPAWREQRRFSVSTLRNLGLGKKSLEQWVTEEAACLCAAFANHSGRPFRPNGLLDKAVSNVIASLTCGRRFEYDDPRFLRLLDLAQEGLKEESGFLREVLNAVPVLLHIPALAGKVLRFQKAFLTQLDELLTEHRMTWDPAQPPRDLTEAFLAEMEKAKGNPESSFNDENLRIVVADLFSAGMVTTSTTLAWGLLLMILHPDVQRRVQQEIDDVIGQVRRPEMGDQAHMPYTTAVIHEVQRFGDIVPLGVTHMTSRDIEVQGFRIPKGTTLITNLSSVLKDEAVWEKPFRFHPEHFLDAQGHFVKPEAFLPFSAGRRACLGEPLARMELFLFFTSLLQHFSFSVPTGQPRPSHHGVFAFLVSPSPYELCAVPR

## COc1ccccc1C1C(C(C)=O)=C(C)N=c2s/c(=C\c3cc(OC)c(OC)c(OC)c3)c(=O)n21 (centres undefined)
[1]
  EC50: > 300 µM (not active)
[2]
  EC50: > 300 µM (not active)

## CCOc1nn(-c2ccc(Cl)cc2)c(O)c1/C=N/c1ccc(O)cc1
Cytochrome P450 2C9
  AC50: 3.55 µM (inconclusive)
Cytochrome P450 1A2
  AC50: 3.55 µM (inconclusive)

## O=C1CS[C@@H](c2ccccc2Cl)c2cc(Cl)ccc2N1
Cytochrome P450 1A2
  AC50: 39.8 µM (inconclusive)

## Cc1cc(=O)oc(C)c1C(=O)Nc1ccc2ncccc2c1
[3]
  EC50: 24.2 µM (active)

## COc1c(Cl)cc(Cl)cc1CNCCNCCO
Cytochrome P450 2C9
  AC50: 22.4 µM (inconclusive)
Cytochrome P450 1A2
  AC50: 28.2 µM (inconclusive)

## CCCn1c(NCc2ccc3c(c2)OCO3)nc2ccccc21
[4]
  AC50: 18.9 µM (active)

## COc1ccc(-c2nc3cnc(N4CCNCC4)nc3n(Cc3cccc(OC)c3)c2=O)cc1
Cytochrome P450 2C19
  AC50: 39.8 µM (inconclusive)
Cytochrome P450 1A2
  AC50: 31.6 µM (inconclusive)
Cytochrome P450 2D6
  AC50: 39.8 µM (inconclusive)

## C=CCN1C(=O)NC(=O)/C(=C/c2cc3c4c(c2)CCCN4CCC3)C1=O
[4]
  AC50: 2.31 µM (active)

## CNc1nc(NCCOC23CC4CC(CC(C4)C2)C3)nc(OCC(F)(F)F)n1
Cytochrome P450 2C9
  AC50: 15.8 µM (inconclusive)
Cytochrome P450 1A2
  AC50: 12.6 µM (inconclusive)

## COc1ccccc1NC(=O)/C(C#N)=C/c1cc([N+](=O)[O-])ccc1N1CCCC1
[1]
  EC50: 4.59 µM (inconclusive)
[3]
  EC50: 7.66 µM (active)
[2]
  EC50: 7.27 µM (inconclusive)

## Cc1noc(C)c1S(=O)(=O)NCCN1CCN(c2ccccc2)CC1
[4]
  AC50: 3.33 µM (active)

## O=[N+]([O-])c1cccc(-c2nnc(S)n2-c2ccc(Br)cc2)c1
[4]
  AC50: 3.63 µM (active)

## CCc1ccccc1N1C(=O)c2cccc3c(N4CCOCC4)c([N+](=O)[O-])cc(c23)C1=O
Cytochrome P450 1A2
  AC50: 10 µM (inconclusive)

## COc1cc(OC)cc(C(=O)N2CCCC(Nc3ccc(F)cc3)C2)c1 (centres undefined)
[4]
  AC50: 1.97 µM (active)

## O=C(CCl)Nc1cccn2ncnc12
[5]
  CC50: 32.6 µM (active)

## Cc1ccc(S(=O)(=O)N2CCC(=O)N(C(COCc3ccc(C(F)(F)F)cc3)Cc3ccccc3)CC2)cc1 (centres undefined)
[3]
  EC50: 4.81 µM (active)

## O=C(CSc1nc2ccccc2[nH]1)NCCN1CCCCC1
Cytochrome P450 2C19
  AC50: 22.4 µM (inconclusive)
Cytochrome P450 1A2
  AC50: 0.316 µM (inconclusive)
Cytochrome P450 2D6
  AC50: 1.78 µM (inconclusive)

## O=C(CSc1nc(O)c2c(C(F)(F)F)cc(-c3cccs3)nc2n1)Nc1c(F)c(F)c(F)c(F)c1F
[6]
  AC50: 1.04 µM (active)

## Nc1nnc(C(=O)c2ccccc2N)s1
[1]
  EC50: 3.86 µM (active)
[2]
  EC50: 14.7 µM (active)

## Cc1c(NC(=O)c2ccc([N+](=O)[O-])o2)cccc1-c1nc2ncccc2o1
[5]
  CC50: > 40 µM (active)
[6]
  AC50: 4 µM (active)

## Sc1nc(-c2ccccc2)c[nH]1
[4]
  AC50: 0.904 µM (active)

## CC1=C/C(=C(/c2ccc(O)c(C)c2)c2ccccc2C(=O)O)C=CC1=O
Cytochrome P450 1A2
  AC50: 3.16 µM (inconclusive)

## Cc1ccc(S(=O)(=O)Nc2ccccc2F)cc1C(=O)NNC(=O)c1ccccc1O
[1]
  EC50: 1.75 µM (inconclusive)
[2]
  EC50: 149 µM (inconclusive)

## COc1ccc(NC(=O)N2CCC3(CC2)CCN(C(=O)c2cnccn2)CC3)cc1
Cytochrome P450 2C9
  AC50: 31.6 µM (inconclusive)
Cytochrome P450 1A2
  AC50: 10 µM (inconclusive)

## CNCC[C@H](Oc1ccccc1C)c1ccccc1
Cytochrome P450 1A2
  AC50: 15.8 µM (inconclusive)

## C[C@@H](C(=O)NCc1ccc(S(C)(=O)=O)cc1)[C@H]1C[C@]1(C)[C@H](NC(=O)OCc1ccccc1)c1ccccc1
Cytochrome P450 1A2
  AC50: 12.6 µM (inconclusive)

## C[C@@H]1Cc2c(O)c(O)cc(O)c2C(=O)O1
[1]
  EC50: 13.5 µM (active)
[2]
  EC50: 104 µM (active)

## CC1=NN(c2nc(-c3ccc(Cl)cc3)cs2)C(=O)C1
[6]
  AC50: 5.37 µM (active)

## CC(NC(=O)CCl)c1ccc(Cl)c(Cl)c1 (centres undefined)
[5]
  CC50: 8.91 µM (active)

## CCn1cc(C=C2C(=O)N(C)C(=O)N(C)C2=O)c2ccccc21
[1]
  EC50: > 300 µM (inconclusive)
[2]
  EC50: > 300 µM (not active)

## Cc1ccc(/C=C2\C(=O)Nc3ccccc32)o1
[5]
  CC50: > 40 µM (active)

## COC(=O)c1ccc(-n2c(CCC(=O)O)ccc2-c2ccc(C)cc2)cc1
[1]
  EC50: > 300 µM (not active)
[2]
  EC50: > 300 µM (not active)
